Where two headings read alike, the source gives them in different places.

The subject of series [1] is GM1 production in Jurkat cells. The series can be described thus: cells. The format is cell-based.
Series [2] concerns the target glucosylceramide synthase (GCS) (Homo sapiens (Human), UniProt Q16739). The series can be described thus: Evaluation of inhibitory activities against GCS (A549 cell lysate, NBD C6-ceramide, HPLC). In kind it is biochemical. Put shortly:
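GCS activity in A549 cell lysate (50 mM HEPES, pH 7.3) with NBD C6-ceramide, reacted 90 min at 37 °C. Lipids were chloroform/methanol-extracted and separated by normal-phase HPLC with fluorescence detection (ex 470/em 530 nm). GlcCer fraction of peak area was normalized between DMSO and ibiglustat, and IC50 obtained by curve fitting.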

Series [3] is described as follows: Evaluation of blood-brain barrier (BBB) permeability through oral administration. In kind it is in vivo, mice. To be noted: mice, oral, dose 30 mg/kg, 4 hr; for Kp at 4 h / concentration at 4 h: mouse, in vivo; for Kp at 4 h: read-out: Mean brain-plasma drug ratio at 4 hr. The method in brief:
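Mice dosed orally at 10 or 30 mg/10 ml/kg, suspended in 0.5% methyl cellulose with 0.2% Tween 80. Plasma and forebrain homogenate taken 4 hours post-dose, drug measured by LC-MS/MS; brain/plasma ratio calculated from tissue concentrations.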

The mark [4] stands for this setting: % GCS activity, A549 cell lysate, 37° C. for 90 minutes, read-out: IC50.
Setting [5] is: read-out: Mean drug concentrations in brain tissue at 4 hr.
The mark [6] stands for this setting: read-out: Mean drug concentrations in plasma at 4 hr.

glucosylceramide synthase (GCS), sequence (Q16739 whole entry): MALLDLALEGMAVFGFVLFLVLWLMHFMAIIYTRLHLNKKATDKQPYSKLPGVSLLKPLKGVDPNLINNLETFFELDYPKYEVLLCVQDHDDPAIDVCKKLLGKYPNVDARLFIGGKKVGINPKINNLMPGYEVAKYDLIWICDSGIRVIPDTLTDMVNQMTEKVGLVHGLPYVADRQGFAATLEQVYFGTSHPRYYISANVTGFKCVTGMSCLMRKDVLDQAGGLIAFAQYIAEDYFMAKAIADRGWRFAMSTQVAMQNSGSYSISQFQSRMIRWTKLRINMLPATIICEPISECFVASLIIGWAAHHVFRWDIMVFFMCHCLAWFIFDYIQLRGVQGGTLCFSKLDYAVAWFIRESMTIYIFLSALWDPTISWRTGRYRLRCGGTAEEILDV

Regarding `CC(C)Oc1ccc(-c2ccc3c(c2)CCC(C)(C)[C@H]3NC(=O)O[C@@H]2CN3CCC2CC3)cc1Cl` [Example 150, (S)-quinuclidin-3-yl((R)-6-(3-chloro-4-isopropoxyphenyl)-2,2-dimethyl-1,2,3,4-tetrahydronaphthalen-1-yl) carbamate], in series [1] (read-out: IC50), the half-inhibitory concentration (IC50) worked out at 3.27 nM. For the same compound, in series [2] (setting [4]), the IC50 stood at 1.26 nM. In series [3], the “Mean brain-plasma drug ratio at 4 hr” value is reported as 1.471, the “Mean drug concentrations in brain tissue at 4 hr” value is given as 1520.5 ng/g and the “Mean drug concentrations in plasma at 4 hr” value is listed as 1065 ng/mL.

Regarding `CC(C)Oc1ccc(-c2cc3c(cc2F)[C@H](NC(=O)O[C@@H]2CN4CCC2CC4)C(C)(C)C3)c(Cl)c1` [Example 92, (S)-quinuclidin-3-yl((R)-5-(2-chloro-4-isopropoxyphenyl)-6-fluoro-2,2-dimethyl-2,3-dihydro-1H-inden-1-yl)carbamate], the IC50 in series [1] (Homo sapiens, Jurkat, 72 h) was determined as 1.16 nM; in series [2], 0.07 nM. For the same compound, the Kp at 4 h in series [3] was determined as 4.13. Also, the concentration at 4 h in series [3] (setting [5]) was found to be 2230 ng/g; in series [3] (setting [6]), 545 ng/mL.

For `COc1c(C)cc(-c2cc3c(cc2F)[C@H](NC(=O)O[C@@H]2CN4CCC2CC4)C(C)(C)CC3)cc1C` [Example 180, (S)-quinuclidin-3-yl((R)-7-fluoro-6-(4-methoxy-3,5-dimethylphenyl)-2,2-dimethyl-1,2,3,4-tetrahydronaphthalen-1-yl)carbamate], the IC50 in series [1] (Homo sapiens, Jurkat, 72 h) came to 8 nM; in series [2] it was 1.32 nM. Also, the Kp at 4 h in series [3] is 1.34. Moreover, the values for the concentration at 4 h in series [3] (setting [5]) and in series [3] (setting [6]) were 1510 ng/g and 1140 ng/mL, respectively.

Turning to `CC(C)Oc1ccc(-c2ccc3c(c2)CCC(C)(C)[C@H]3NC(=O)O[C@@H]2CN3CCC2CC3)c(Cl)c1` [Example 168, (S)-quinuclidin-3-yl((R)-6-(2-chloro-4-isopropoxyphenyl)-2,2-dimethyl-1,2,3,4-tetrahydronaphthalen-1-yl)carbamate], the IC50 was 0.23 nM in series [1] (Homo sapiens, Jurkat, 72 h) and 0.188 nM in series [2]. In series [3], the Kp at 4 h was 1.18. Also, the concentration at 4 h is 3370 ng/g in series [3] (setting [5]) and 2890 ng/mL in series [3] (setting [6]).

For `COc1ccc(-c2cc3c(cc2F)[C@H](NC(=O)O[C@@H]2CN4CCC2CC4)C(C)(C)C3)cc1F` [Example 89, (S)-quinuclidin-3-yl((R)-6-fluoro-5-(3-fluoro-4-methoxyphenyl)-2,2-dimethyl-2,3-dihydro-1H-inden-1-yl)carbamate], the IC50 came out at 43.5 nM in series [1] (Homo sapiens, Jurkat, 72 h) and 0.621 nM in series [2]. For the same compound, the Kp at 4 h in series [3] came to 5.42. The figures for the concentration at 4 h in series [3] (setting [5]) and in series [3] (setting [6]) were 4040 ng/g and 751 ng/mL, respectively.

Regarding `CC(C)Oc1ccc(-c2ccc3c(c2)CCC(C)(C)[C@H]3NC(=O)O[C@@H]2CN3CCC2CC3)cc1F` [Example 161, (S)-quinuclidin-3-yl((R)-6-(3-fluoro-4-isopropoxyphenyl)-2,2-dimethyl-1,2,3,4-tetrahydronaphthalen-1-yl)carbamate], the half-inhibitory concentration (IC50) was 4.5 nM in series [1] (Homo sapiens, Jurkat, 72 h) and 7.41 nM in series [2]. In series [3], the Kp at 4 h was 3.97. In addition, the concentration at 4 h is 4840 ng/g in series [3] (setting [5]) and 1240 ng/mL in series [3] (setting [6]).

Regarding `CCCc1ccc(-c2cc3c(cc2F)[C@H](NC(=O)O[C@@H]2CN4CCC2CC4)C(C)(C)CC3)cc1` [Example 171, (S)-quinuclidin-3-yl((R)-7-fluoro-2,2-dimethyl-6-(4-propylphenyl)-1,2,3,4-tetrahydronaphthalen-1-yl)carbamate], the IC50 in series [1] (Homo sapiens, Jurkat, 72 h) came to 1.4 nM; in series [2] it was 0.19 nM. Besides, the Kp at 4 h in series [3] worked out at 3.88. Moreover, the values for the concentration at 4 h in series [3] (setting [5]) and in series [3] (setting [6]) were 2900 ng/g and 748 ng/mL, respectively.

As for `CC(C)Oc1ccc(-c2ccc3c(c2)CC(C)(C)[C@H]3NC(=O)O[C@@H]2CN3CCC2CC3)c(Cl)c1` [Example 32, (S)-quinuclidin-3-yl((R)-5-(2-chloro-4-isopropoxyphenyl)-2,2-dimethyl-2,3-dihydro-1H-inden-1-yl)carbamate], the IC50 in series [1] (Homo sapiens, Jurkat, 72 h) is 4.23 nM; in series [2], 0.192 nM. In addition, the Kp at 4 h in series [3] is 4.23. For the same compound, the concentration at 4 h in series [3] (setting [5]) came to 5650 ng/g; in series [3] (setting [6]), 1340 ng/mL.

`CCOc1ccc(-c2cc3c(cc2F)[C@H](NC(=O)O[C@@H]2CN4CCC2CC4)C(C)(C)CC3)cc1` [Example 176, (S)-quinuclidin-3-yl((R)-6-(4-ethoxyphenyl)-7-fluoro-2,2-dimethyl-1,2,3,4-tetrahydronaphthalen-1-yl)carbamate]: the IC50 came to 2.1 nM in series [1] (Homo sapiens, Jurkat, 72 h) and 0.24 nM in series [2]. For the same compound, the Kp at 4 h in series [3] is 3.58. For the same compound, the concentration at 4 h in series [3] (setting [5]) is 4860 ng/g; in series [3] (setting [6]), 1360 ng/mL.

For `CCCc1cccc(-c2cc3c(cc2F)[C@H](NC(=O)O[C@@H]2CN4CCC2CC4)C(C)(C)C3)c1` [Example 72, (S)-quinuclidin-3-yl((R)-6-fluoro-2,2-dimethyl-5-(3-propylphenyl)-2,3-dihydro-1H-inden-1-yl)carbamate], the IC50 in series [1] (Homo sapiens, Jurkat, 72 h) amounted to 15.9 nM; in series [2], 1.19 nM.

Take `CC(C)c1ccc(-c2ccc3c(c2)CCC(C)(C)[C@H]3NC(=O)O[C@@H]2CN3CCC2CC3)cc1` [Example 141, (S)-quinuclidin-3-yl((R)-6-(4-isopropylphenyl)-2,2-dimethyl-1,2,3,4-tetrahydronaphthalen-1-yl)carbamate]: the half-maximal inhibitory concentration (IC50) in series [1] (Homo sapiens, Jurkat, 72 h) turned out to be 2.77 nM; in series [2], 0.43 nM.

Consider `CC(C)Oc1cc(F)cc(-c2ccc3c(c2)CC(C)(C)[C@H]3NC(=O)O[C@@H]2CN3CCC2CC3)c1` [Example 49, (S)-quinuclidin-3-yl((R)-5-(3-fluoro-5-isopropoxyphenyl)-2,2-dimethyl-2,3-dihydro-1H-inden-1-yl)carbamate], for which the IC50 in series [1] (Homo sapiens, Jurkat, 72 h) came to 9.4 nM; in series [2], 0.58 nM.

On to `Cc1cc(-c2cc3c(cc2F)[C@H](NC(=O)O[C@@H]2CN4CCC2CC4)C(C)(C)C3)ccc1OC(F)F` [Example 107, (S)-quinuclidin-3-yl((R)-5-(4-(difluoromethoxy)-3-methylphenyl)-6-fluoro-2,2-dimethyl-2,3-dihydro-1H-inden-1-yl)carbamate], for which the IC50 amounted to 16 nM in series [1] (Homo sapiens, Jurkat, 72 h) and 0.93 nM in series [2].

Consider `CC(C)Oc1cccc(-c2cc3c(cc2F)[C@H](NC(=O)O[C@@H]2CN4CCC2CC4)C(C)(C)CC3)c1` [Example 196, (S)-quinuclidin-3-yl((R)-7-fluoro-6-(3-isopropoxyphenyl)-2,2-dimethyl-1,2,3,4-tetrahydronaphthalen-1-yl)carbamate], for which the IC50 in series [1] (Homo sapiens, Jurkat, 72 h) was found to be 6 nM; in series [2], 0.43 nM.

In the case of `CCCCOc1ccc(-c2cc3c(cc2C)[C@H](NC(=O)O[C@@H]2CN4CCC2CC4)C(C)(C)C3)cc1` [Example 123, (S)-quinuclidin-3-yl((R)-5-(4-butoxyphenyl)-2,2,6-trimethyl-2,3-dihydro-1H-inden-1-yl)carbamate], the IC50 in series [1] (Homo sapiens, Jurkat, 72 h) worked out at 1.26 nM; in series [2], 0.24 nM.

`CCOc1cc2c(cc1-c1ccc(OC(C)C)cc1)CC(C)(C)[C@H]2NC(=O)O[C@@H]1CN2CCC1CC2` [Example 134, (S)-quinuclidin-3-yl((R)-6-ethoxy-5-(4-isopropoxyphenyl)-2,2-dimethyl-2,3-dihydro-1H-inden-1-yl)carbamate]: the IC50 in series [1] (Homo sapiens, Jurkat, 72 h) was 3.8 nM; in series [2], 0.71 nM.

With `Cc1cc(-c2ccc3c(c2)CCC(C)(C)[C@H]3NC(=O)O[C@@H]2CN3CCC2CC3)cc(C)c1OC(C)C` [Example 149, (S)-quinuclidin-3-yl((R)-6-(4-isopropoxy-3,5-dimethylphenyl)-2,2-dimethyl-1,2,3,4-tetrahydronaphthalen-1-yl) carbamate], the IC50 in series [1] (read-out: IC50) amounted to 14.6 nM; in series [2] (setting [4]), 1.77 nM.

Regarding `CCCc1ccc(-c2ccc3c(c2)CCC(C)(C)[C@H]3NC(=O)O[C@@H]2CN3CCC2CC3)cc1` [Example 140, (S)-quinuclidin-3-yl((R)-2,2-dimethyl-6-(4-propylphenyl)-1,2,3,4-tetrahydronaphthalen-1-yl)carbamate], the IC50 worked out at 2.5 nM in series [1] (Homo sapiens, Jurkat, 72 h) and 0.29 nM in series [2].

Regarding `CCOc1ccc(-c2cc3c(cc2OCC)[C@H](NC(=O)O[C@@H]2CN4CCC2CC4)C(C)(C)C3)cc1` [Example 132, (S)-quinuclidin-3-yl((R)-6-ethoxy-5-(4-ethoxyphenyl)-2,2-dimethyl-2,3-dihydro-1H-inden-1-yl)carbamate], the IC50 in series [1] (Homo sapiens, Jurkat, 72 h) was 7.62 nM; in series [2], 1.6 nM.

Take `CC(C)COc1ccc(-c2ccc3c(c2)CCC(C)(C)[C@H]3NC(=O)O[C@@H]2CN3CCC2CC3)cc1` [Example 146, (S)-quinuclidin-3-yl((R)-6-(4-isobutoxyphenyl)-2,2-dimethyl-1,2,3,4-tetrahydronaphthalen-1-yl)carbamate]: the IC50 in series [1] (Homo sapiens, Jurkat, 72 h) is 0.68 nM; in series [2] it was 0.17 nM.

In the case of `CCOc1cccc(-c2cc3c(cc2F)[C@H](NC(=O)O[C@@H]2CN4CCC2CC4)C(C)(C)CC3)c1` [Example 185, (S)-quinuclidin-3-yl((R)-6-(3-ethoxyphenyl)-7-fluoro-2,2-dimethyl-1,2,3,4-tetrahydronaphthalen-1-yl)carbamate], the IC50 stood at 3.6 nM in series [1] (Homo sapiens, Jurkat, 72 h) and 0.3 nM in series [2].
